According to patent publication US7968570B2, “Isoindolone compounds and their use as metabotropic glutamate receptor potentiators” (AstraZeneca AB, priority 2004, dated 2011):

Target: T1, human mGluR2 receptor (Homo sapiens, UniProt Q14416)
T1 construct: expressed in transfected cells
Assay: [35S]-GTPγS binding assay of mGluR2 receptor activation
Format: biochemical
Settings: not given
Protocol: A [^35S]-GTPγS binding assay was used to functionally assay mGluR2 receptor activation. The allosteric activator activity of compounds at the human mGluR2 receptor were measured using a [^35S]-GTPγS binding assay with membranes prepared from CHO cells which stably express the human mGluR2. The assay is based upon the principle that agonists bind to G-protein coupled receptors to stimulate GDP-GTP exchange at the G-protein. Since [^35S]-GTPγS is a non-hydrolyzable GTP analog, it can be used to provide an index of GDP-GTP exchange and, thus, receptor activation. The GTPγS binding assay therefore provides a quantitative measure of receptor activation.
Membranes were prepared from CHO cells stably transfected with human mGluR2. Membranes (30 μg protein) were incubated with test compound (3 nM to 300 μM) for 15 minutes at room temperature prior to the addition of 1 μM glutamate, and incubated for 30 min at 30° C. in 500 μl assay buffer (20 mM HEPES, 100 mM NaCl, 10 mM MgCl2), containing 30 μM GDP and 0.1 nM [^35S]-GTPγS (1250 Ci/mmol). Reactions were carried out in triplicate in 2 ml polypropylene 96-well plates. Reactions were terminated by vacuum filtration using a Packard 96-well harvester and Unifilter-96, GF/B filter microplates. The filter plates were washed 4×1.5 ml with ice-cold wash buffer (10 mM sodium phosphate buffer, pH 7.4). The filter plates were dried and 35 μl of scintillation fluid (Microscint 20) was added to each well. The amount of radioactivity bound was determined by counting plates on the Packard TopCount. Data was analyzed using GraphPad Prism, and EC50 and Emax values (relative to the maximum glutamate effect) were calculated using non-linear regression.

T1 sequence (Q14416 19-872): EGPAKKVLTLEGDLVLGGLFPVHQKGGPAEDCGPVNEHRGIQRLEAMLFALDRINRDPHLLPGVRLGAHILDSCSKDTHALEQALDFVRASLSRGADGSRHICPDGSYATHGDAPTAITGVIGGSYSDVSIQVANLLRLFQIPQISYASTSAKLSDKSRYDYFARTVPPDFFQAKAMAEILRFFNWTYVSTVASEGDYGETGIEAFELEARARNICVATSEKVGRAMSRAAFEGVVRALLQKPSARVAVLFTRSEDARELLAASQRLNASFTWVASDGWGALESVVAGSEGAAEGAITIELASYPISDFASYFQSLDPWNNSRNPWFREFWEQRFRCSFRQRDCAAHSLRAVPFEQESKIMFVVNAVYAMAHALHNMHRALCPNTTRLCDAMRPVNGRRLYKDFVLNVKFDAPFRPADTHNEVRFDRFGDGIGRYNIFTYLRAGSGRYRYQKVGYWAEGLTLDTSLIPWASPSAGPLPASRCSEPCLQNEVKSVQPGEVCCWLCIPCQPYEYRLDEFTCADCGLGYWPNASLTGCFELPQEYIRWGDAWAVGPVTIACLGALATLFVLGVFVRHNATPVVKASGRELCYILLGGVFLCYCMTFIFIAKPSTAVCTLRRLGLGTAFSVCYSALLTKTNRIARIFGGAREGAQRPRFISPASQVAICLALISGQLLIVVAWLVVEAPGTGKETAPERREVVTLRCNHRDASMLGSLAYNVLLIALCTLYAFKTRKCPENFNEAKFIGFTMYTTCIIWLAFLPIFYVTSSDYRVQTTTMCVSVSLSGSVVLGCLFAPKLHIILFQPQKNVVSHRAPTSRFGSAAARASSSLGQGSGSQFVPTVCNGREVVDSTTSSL

Row | EC50 | SMILES
1 | 740 nM | Cc1cc(CC2CCN(C(C)C)CC2)cc2c1C(=O)N(Cc1ccc(OC(F)(F)F)cc1)C2 [Example 174, 5-(1-isopropyl-piperidin-4-ylmethyl)-7-methyl-2-(4-trifluorometh-oxy-benzyl)-2,3-dihydro-isoindol-1-one]
2 | 40 nM | O=C1c2c(Cl)cc(CC3CCN(Cc4ccncc4)CC3)cc2CN1Cc1ccc(OC(F)(F)F)cc1 [Example 182]

Same assay, conditions: membranes from CHO cells stably expressing human mGluR2; 1 μM glutamate

Row | SMILES | EC50
3 | Cc1cc(N2CCN(Cc3ccncc3)CC2)cc2c1C(=O)N(Cc1ccc(N3CCN(Cc4ccncc4)CC3)cc1)C2 [Example 142, 7-Methyl-5-(4-pyridin-4-ylmethyl-piperazin-1-yl)-2-[4-(4-pyridin-4-ylmethyl-piperazin-1-yl)-benzyl]-2,3-dihydro-isoindol-1-one] | 4040 nM
4 | COc1cc(N2CCN3CCCC3C2)cc2c1C(=O)N(Cc1ccc(OC(F)(F)F)cc1)C2 (stereo not shown) [Example 124, 5- (Hexahydropyrrolo [1,2-a]pyrazin-2-yl)-7-methoxy-2-(4-trifluoromethoxy-benzyl)-2,3-dihydroisoindol-1-one] | 1910 nM
5 | COc1cc(C2=CCN(C(=O)OC(C)(C)C)CC2)cc2c1C(=O)N(Cc1ccc(OC(F)(F)F)cc1)C2 [Example 85, 4-[7-Methoxy-1-oxo-2-(4-trifluoromethoxy-benzyl)-2,3-dihydro-1H-isoindol-5-yl]-3,6-dihydro-2H-pyridine-1-carboxylic acid tert-butyl ester] | 80 nM
6 | Cc1cc(-c2ccncc2)cc2c1C(=O)N(Cc1ccc(OC(F)(F)F)cc1)C2 [Example 96, 7-Methyl-5-pyridin-4-yl-2-(trifluoromethoxybenzyl)-2,3-dihydroisoindol-1-one] | 130 nM
7 | Cc1cc(C(=O)N2CCN(Cc3ccccc3)CC2)cc2c1C(=O)N(Cc1ccc(OC(F)(F)F)cc1)C2 [Example 161, 5-(4-Benzyl-piperazine-1-carbonyl)-7-methyl-2-(4-trifluoromethoxy-benzyl)-2,3-dihydro-isoindol-1-one] | 630 nM
8 | Cc1cc(N2CCN(CCN(C)C)CC2)cc2c1C(=O)N(Cc1ccc(OC(F)(F)F)cc1)C2 [Example 140, 5-[4-(2-Dimethylamino-ethyl)-piperazin-1-yl]-7-methyl-2-(4-trifluoro-methoxy-benzyl)-2,3-dihydro-isoindol-1-one] | 1200 nM
9 | Cc1cc(Br)cc2c1C(=O)N(Cc1ccc(Cl)cc1)C2 [Example 31, 5-Bromo-2-(4-chlorobenzyl)-7-methyl-2,3-dihydroisoindol-1-one] | 710 nM
10 | Cc1cc(N2CCN3CCCC3C2)cc2c1C(=O)N(Cc1ccc(Cl)cc1)C2 (stereo not shown) [Example 118, 2-(4-Chlorobenzyl)-5-(hexahydropyrrolo [1,2-a]pyrazin-2-yl)-7-methyl-2,3-dihydroisoindol-1-one] | 810 nM
11 | Cc1cc(N2CCN(CCc3ccncc3)CC2)cc2c1C(=O)N(Cc1ccc(OC(F)(F)F)cc1)C2 [Example 137] | 100 nM

Results, then the molecule that gave them:

Row | EC50 | SMILES
12 | 1160 nM | COc1cc(-c2cccnc2)cc2c1C(=O)N(Cc1ccc(Cl)cc1)C2 [Example 101, 2-(4-Chloro-benzyl)-7-methoxy-5-pyridin-3-yl-2,3-dihydro-isoindol-1-one]
13 | 610 nM | O=C1c2c(Cl)cc(N3CCN4CCCC4C3)cc2CN1Cc1ccc(Cl)cc1 (stereo not shown) [Example 134, 7-Chloro-2-(4-chloro-benzyl)-5-(hexahydro-pyrrolo[1,2-a]pyrazin-2-yl)-2,3-dihydro-isoindol-1-one]
14 | 460 nM | O=Cc1cnccc1-c1cc(Cl)c2c(c1)CN(Cc1ccc(Cl)cc1)C2=O [Example 108, 4-[7-Chloro-2-(4-chloro-benzyl)-1-oxo-2,3-dihydro-1H-isoindol-5-yl]-pyridine-3-carbaldehyde]
15 | 400 nM | COc1cc(-c2ccncc2)cc2c1C(=O)N(Cc1ccc(OC(F)(F)F)cc1)C2 [Example 99, 7-Methoxy-5-pyridin-4-yl-2-(4-trifluoromethoxy-benzyl)-2,3-dihydroisoindol-1-one]
16 | 590 nM | Cc1cc(CN2CCOCC2)cc2c1C(=O)N(Cc1ccc(OC(F)(F)F)cc1)C2 [Example 44, 7-Methyl-5-morpholin-4-ylmethyl-2-(4-trifluoromethoxy-benzyl)-2,3-dihydro-isoindol-1-one]
